Assay results: US5998521A, “Aqueous fluoropolymer compositions and method of preparing the same” (3M Innovative Properties Company, priority 1996, dated 1999)

Assays:
[1] = Hydrolytic stability of esters in concentrated aqueous ammonium hydroxide; type: physicochemical; conditions: 2 days
Description: The acrylate and methacrylate esters from Examples D1-D11 were fully recoverable with essentially no degradation after being stirred with concentrated aqueous ammonium hydroxide for a period of 2 days.

rats [2] = conditions: Goeche-Flora et al.; cited from earlier work
rats [3] = test: Acute LD50, one-time feeding study of rats over 21 days; type: in vivo, rat; conditions: for acute toxicity: rat, in vivo
Description: (§1) Acute LD50 measurements for a one-time feeding study of rats were determined over a 21 day period for both the α-branched perfluorocarboxylate salt, C7 F15 CF(CF3)COO^- NH4^+, and its straight chain isomer, CF3 (CF2)8 COO^- NH4^+.

[4] = as above; type: in vivo, rat; conditions: rat, in vivo, po; one-time feeding, rats, 21 day period
Description: as §1

[5] = Thermal degradation in aqueous media; type: physicochemical; conditions: for volatile products formed: aqueous, approximately 80° C. for several hours, or similar way
Description: The thermal degradation of an aqueous α-branched perfluoroalkylcarbonyl fluoride and the characterization of the products produced from the degradation were carried out using the following procedure. […] 5.7 g of volatile degradation products were then collected by azeotropic distillation using a Dean-Stark apparatus.
The thermal degradation of C7 F15 CF(CF3)COF (from Example A4) dispersed in water was also carried out by heating the aqueous mixture for several hours at approximately 80° C.

rats [6] = test: Rat desiccator jar chamber test, exhaled degradation products; type: in vivo
Description: Additional biological testing of C7 F15 CF(CF3)COO^- NH4^+ in rats was conducted using the following test apparatus. An uptake desiccator jar chamber was designed with top and bottom portions, the top portion equipped with an inlet port, an outlet port, oxygen monitor and pressure gage. An oxygen gas tank supplied oxygen into the inlet port, and the oxygen level in the chamber was maintained at a normal ambient level as measured by the oxygen monitor and pressure gage. The outlet port was connected in series with a carbon dioxide scrubber and particulate filter, which in turn was connected to a loop containing a stainless steel bellows pump operating at about 2 L/min. Most of the gas in the loop was recycled into the inlet port, but about 100 mL/min was directed through a secondary loop to a gas chromatograph equipped with a 0.5 mL gas sampling loop.
A rat dosed at 500 mg/kg was placed in the bottom portion of the chamber, the top portion was attached, and the assembled chamber was placed in an ice-filled pan to allow for the condensation of water. The oxygen flow was started, and the exhaust gases were monitored for the presence of CF3 CF=CF(C6 F13) and C7 F15 CFHCF3, aqueous degradation products of C7 F15 CF(CF3)COOH, using known standards of this olefin and hydride in the gas chromatograph. […] After 24 minutes, one slight chromatographic peak was noted, corresponding to the monohydride. After 92 minutes, the peak became noticeably larger and a second peak formed, corresponding to the olefin.

[7] = Surface tension and critical micelle concentration of aqueous surfactant solutions; type: physicochemical; conditions: Table 5, deionized water; for Surf. Tens.: at the CMC
Description: Critical Micelle Concentration (CMC): The critical micelle concentration is defined as the concentration at which further surface tension is no longer lowered with increasing levels of surfactant. To determine CMC, surface tension is measured as a function of surfactant concentration using a K-12 Processor Tensiometer in conjunction with a 665 Dosimat automatic surfactant injection device (also commercially available from Kruss GmbH). Surface tension is then plotted vs. log concentration and the data points are connected. The resulting curve has a nearly horizontal flat portion at concentrations above the CMC and has a negative steep slope at concentrations below the CMC. The CMC is defined as the lowest surfactant concentration in the horizontal flat portion of the curve.
(§2) Then the critical micelle concentration (CMC) was determined for each surfactant.
as §2

[8] = Thermogravimetric analysis of neat perfluorocarboxylate salts; type: physicochemical; conditions: neat salt, nitrogen, 10° C./min
Description: Thermal degradation measurements were made on a series of neat perfluorocarboxylate salts, including several α-branched open chain structures (Examples N2-N9), a primarily linear open chain structure (Example N10-Fluorad™ FC-143 Fluorochemical Surfactant, commercially available from 3M Company, St. Paul, Minn.), and a closed chain (i.e., cyclic) structure (Example N11--made by the electrochemical fluorination of benzoic acid and hydrolysis in the presence of KOH, as described in U.S. Pat. No. 2,567,011 (Diesslin et al.)).
The perfluorocarboxylate salts were tested using a Perkin-Elmer TGA 7 thermogravimetric analysis apparatus and a salt sample size of approximately 5 mg, a heating rate of 10° C./min, and a nitrogen gas flow rate of 40-45 mL/min. Using the TGA 7 software, the following temperatures were recorded: (1) the onset temperature of decomposition, (2) the temperature at which 50% of the sample weight was lost, and (3) the temperature at which 90% of the sample weight was lost.

[9] = Emulsion copolymerization of hexafluoropropylene and vinylidene fluoride
Description: The following procedure was used to evaluate C7 F15 CF(CF3)COO^- NH4^+ (from Ex. M1) as an emulsifier to copolymerize hexafluoropropylene (HFP) and vinylidene fluoride.
A 1 gallon, vertically agitated stainless steel reactor with pressure and temperature controls was evacuated and twice purged with nitrogen. Using an isolated vacuum, a solution comprised of 2 g of ammonium persulfate (initiator) and 6 g of dipotassium phosphate dissolved in 2800 g of deionized water was introduced into the reactor. The remaining vacuum on the reactor was vented with nitrogen, and the solution was degassed twice under agitation using alternate vacuum and nitrogen purges. A sufficient amount of a solution of C7 F15 CF(CF3)COO^- NH4^+ in approximately 20 g of 60-70° C. deionized water was introduced to the reactor under isolated vacuum to give a calculated final concentration of 350 ppm emulsifier in the aqueous solution. The reactor was vented with nitrogen, the solution was agitated very briefly, and the reactor was evacuated of nitrogen and isolated. Then the reactor was vented with hexafluoropropylene monomer to a pressure of approximately 10 psig (1280 torr total pressure), and the temperature of the batch was raised to 72° C. with high agitation. Maintaining the temperature at 72° C., a monomer mixture of 60% (wt) of vinylidene fluoride and 40% (wt) hexafluoropropylene was fed from a tared gas cylinder into the head space of the reactor to maintain a reactor pressure of 130 psig (7480 total pressure). After feeding in about 1 kg of monomer blend (approximately 3.75 hours duration), the introduction of monomer was ceased, the reaction was allowed to cool to room temperature, and any residual unreacted monomer was vented.
The resulting latex polymer was drained from the reactor, and percent solids of the latex was determined to be 25% by weight as measured by drying 10 g of latex in a forced air oven for 16 hours at 105° C.
The reactor body was separated from the reactor head, and a visual inspection of the reactor was made to determine the amount of coagulated polymer in the reactor (the amount should be minimal in a good polymerization reaction). A qualitative rating was assessed, ranging from "none" to "little" to "some."
The latex stability was determined by half filling a 16 oz (450 mL) jar with latex and shaking several hours in the horizontal position, quantitatively rating the latex after shaking using a 3-point scale ranging from 0=very stable to 3=unstable.
Particle size in the latex was determined using 90° scattering on a Coulter sub-micron particle size analyzer.
Degree of foaming was rated using the following qualitative scale: 0=not foamy, 1=slightly foamy, 2=moderately foamy, and 3=very foamy.
In Example P2, the same experiment was run as in Example P1, except that the concentration of C7 F15 CF(CF3)COO^- NH4^+emulsifier was raised to 3500 ppm, the reaction time decreased from 3.75 to 3.5 hours, and the reaction temperature increased from 72° C. to 78° C.
In Comparative Examples P3-P6, the same experiment was run as in Example P1, except that C8 F17 SO2 N(C2 H5)CH2 COO^- K^+ (Fluorad™ FC-128 Fluorochemical Surfactant, available from 3M Company, St. Paul, Minn.), C7 F15 COO^- H4 N^+ (Fluorad™ FC-143 Fluorochemical Surfactant), and Surflon™ S111S Fluorochemical Surfactant (believed to be nominally telomer-based n-C9 F19 COO^- H4 N^+, commercially available from Asahi Glass Corp., Japan) were substituted for C7 F15 CF(CF3)COO^- HN^+ emulsifier.

[10] = Degradation in aqueous solution at room temperature over 1 year; type: physicochemical
Description: The α-branched open chain ammonium salt compounds from Examples N3-N6 were dissolved in deionized water at a concentration of 5% by weight (0.5 g ammonium salt in 10 mL water) and were stored at room temperature.

For `C=CC(=O)OCCOC(=O)C(F)(F)C(F)(F)C(F)(F)C(F)(F)C(F)(F)C(F)(F)C(F)(F)F` [C7 F15 COOCH2 CH2 OCOCH=CH2], which hydrolytic stability [1] is on record?
The hydrolytic stability was “readily hydrolyzed”.

For `O=C(O)C(F)(F)C(F)(F)C(F)(F)C(F)(F)C(F)(F)C(F)(F)C(F)(F)C(F)(F)C(F)(F)F` [C9 F19 COO^- NH4^+, CF3 (CF2)8 COO^- NH4^+, reference compound], which “toxicity (literature, words)” value (rats [2]) is on record?
The value was “moderately toxic”.

What about the “acute toxicity” value (rats [3]) of the same compound?
The value was “moderately toxic”.

And the wasting syndrome (rats [3]; rats)?
The wasting syndrome was “Wasting syndrome was observed”.

What about the “toxicity relative to the α-branched isomer” value (rats [3]; rats, LD50) of the same compound?
The value was “ca. 10 times”.

And the LD50 at 504 h [4]?
Its LD50 at 504 h is 50 to 100 mg/kg.

Which “volatile products formed” value [5] does the source give for `O=C(F)C(F)(C(F)(F)F)C(F)(F)C(F)(F)C(F)(F)C(F)(F)C(F)(F)C(F)(F)C(F)(F)F` (centres unmarked) [Example A4, C7 F15 CF(CF3)COF] here?
The value was “The same volatile products were formed as in Example N1”.

What about the “volatile degradation products collected” value ([5]; from 8 g, refluxed in deionized water 2 hours) of the same compound?
The value was 5.7 g.

What about the “monohydride in volatile degradation products” value ([5]; in water) of the same compound?
The value was 85%.

What about the “olefin in volatile degradation products” value ([5]; in water) of the same compound?
Its value is 15%.

For `O=C(O)C(F)(C(F)(F)F)C(F)(F)C(F)(F)C(F)(F)C(F)(F)C(F)(F)C(F)(F)C(F)(F)F` (centres unmarked) [Example M1, C7 F15 CF(CF3)COOH], which “volatile products formed” value [5] is on record?
Its value is “the same monohydride and olefin”.

Which “olefin and monohydride in exhaust gas” value (rats [6]; after 217 minutes) does the source give for `O=C(O)C(F)(C(F)(F)F)C(F)(F)C(F)(F)C(F)(F)C(F)(F)C(F)(F)C(F)(F)C(F)(F)F` (centres unmarked) [Example M14, C7 F15 CF(CF3)COO^- H4 N^+] here?
Its value is “both peaks became significantly larger”.

What about the “olefin and monohydride in exhaust gas” value (rats [6]; initially) of the same compound?
The value was “no olefin or hydride were detected”.

And the metabolism and elimination (rats [6]; rat)?
Its metabolism and elimination is “being metabolized by the rat to volatile metabolites which were eliminated from the rat via transpiration”.

What about the post-exposure observation (rats [6]; rat dosed at 500 mg/kg) of the same compound?
The post-exposure observation was “no evidence of toxicity (death) or evidence of wasting syndrome”.

And the “time at which monohydride peak noted in exhaust gas” value (rats [6]; rat dosed at 500 mg/kg)?
Its value is 24 min.

What about the “time at which olefin peak formed in exhaust gas” value (rats [6]; rat dosed at 500 mg/kg, monohydride peak noticeably larger) of the same compound?
Its value is 92 min.

What about the “Surf. Tens.” value [7] of the same compound?
Its value is 16.5 dynes/cm.

What about the CMC [7] of the same compound?
The CMC was 2500 ppm.

And the “Temperature for: 50% loss” value [8]?
Its value is 163 °C.

And the “Temperature for: 90% loss” value [8]?
The value was 174 °C.

What about the “Temperature for: Onset” value [8] of the same compound?
The value was 151 °C.

What about the “acute toxicity” value (rats [3]; listed as C7 F15 CF(CF3)COO^- NH4) of the same compound?
Its value is “relatively low toxicity”.

What about the “acute toxicity” value (rats [3]; listed as C7 F15 CF(CF3)COO^- NH4+) of the same compound?
The value was “only slightly toxic”.

What about the “time of deaths from toxic doses” value (rats [3]; rats) of the same compound?
The value was 2 to 3 days.

And the “time until rats began regaining weight” value (rats [3]; rats)?
The value was 3 days.

And the wasting syndrome (rats [3]; rats)?
Its wasting syndrome is “No wasting syndrome was noted”.

What about the LD50 at 504 h [4] of the same compound?
The LD50 at 504 h was 500 to 1000 mg/kg.

What about the “Latex Stability” value ([9]; emulsifier 350 ppm) of the same compound?
Its value is 2.

What about the “Latex Stability” value ([9]; emulsifier 3500 ppm) of the same compound?
Its value is 0.

With `O=C(O)C(F)(C(F)(F)F)C(F)(F)C(F)(F)C(F)(F)C(F)(F)C(F)(F)F` (centres unmarked) [Example M21, C5 F11 CF(CF3)COO^- K^+] as the compound, how does the “Surf. Tens.” value [7] read?
The value was 22.5 dynes/cm.

And the CMC [7]?
Its CMC is > 10000 ppm.

And the “Temperature for: 50% loss” value ([8]; listed as N9)?
Its value is 178 °C.

What about the “Temperature for: 90% loss” value ([8]; listed as N9) of the same compound?
Its value is 188 °C.

And the “Temperature for: Onset” value ([8]; listed as N9)?
Its value is 167 °C.

Which results are given for `O=C(O)C(F)(F)C(F)(F)C(F)(F)C(F)(F)C(F)(F)C(F)(F)C(F)(F)F` [FC-143, C7 F15 COO^- H4 N^+]?
Surf. Tens. [7]: 21.5 dynes/cm; CMC [7]: 8000 ppm; degradation after 1 year [10]: no signs of degradation; Temperature for: 50% loss [8]: 188 °C; Temperature for: 90% loss [8]: 202 °C; Temperature for: Onset [8]: 173 °C; Latex Stability ([9]; emulsifier 350 ppm): 2

With `CCN(CC(=O)O)S(=O)(=O)C(F)(F)C(F)(F)C(F)(F)C(F)(F)C(F)(F)C(F)(F)C(F)(F)C(F)(F)F` [Fluorad ™ FC-128, C8 F17 SO2 N(C2 H5)CH2 COO^- K^+] as the compound, how does the “Latex Stability” value ([9]; emulsifier 100 ppm) read?
Its value is 2.

And the “Latex Stability” value ([9]; emulsifier 350 ppm)?
The value was 0.
